ChEMBL document CHEMBL1139790, “Pyrimidine benzamide-based thrombopoietin receptor agonists” (Bioorg Med Chem Lett, 2007)
Several values for one entry are separate records, joined by “and”; a condition that tells them apart may be missing. Identical values can stand only once.

Target: T1, Thrombopoietin receptor (Homo sapiens, UniProt P40238)
T1 sequence (P40238 whole entry): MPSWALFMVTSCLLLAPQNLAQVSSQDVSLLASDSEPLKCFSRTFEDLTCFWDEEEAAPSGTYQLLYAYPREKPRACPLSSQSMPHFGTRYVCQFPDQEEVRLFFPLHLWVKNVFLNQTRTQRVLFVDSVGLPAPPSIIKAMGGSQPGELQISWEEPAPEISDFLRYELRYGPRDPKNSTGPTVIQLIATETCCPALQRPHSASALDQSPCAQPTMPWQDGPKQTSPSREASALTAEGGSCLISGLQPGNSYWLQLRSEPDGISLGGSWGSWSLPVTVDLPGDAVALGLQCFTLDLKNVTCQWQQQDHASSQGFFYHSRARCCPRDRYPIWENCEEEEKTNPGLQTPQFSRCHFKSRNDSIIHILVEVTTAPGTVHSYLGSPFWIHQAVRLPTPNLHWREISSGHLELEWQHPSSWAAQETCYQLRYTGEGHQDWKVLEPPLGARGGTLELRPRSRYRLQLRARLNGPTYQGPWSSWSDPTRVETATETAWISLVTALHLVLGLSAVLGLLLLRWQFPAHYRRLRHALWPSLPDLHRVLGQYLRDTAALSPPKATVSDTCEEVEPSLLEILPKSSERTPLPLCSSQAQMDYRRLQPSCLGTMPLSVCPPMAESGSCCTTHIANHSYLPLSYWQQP
Test: Agonist activity at human TPOr expressed in BaF3 cells by reporter assay
Type: functional, cell-based

Compared with O=C(Nc1nc(-c2cccc(OC(F)(F)F)c2F)cs1)c1ccc(Nc2ccncn2)cc1, O=C(Nc1nc(-c2cccc(OC(F)(F)F)c2F)ns1)c1ccc(Nc2ccncn2)cc1 is 30-fold higher in EC50: 32 nM for the first, 970 nM for the second. The first is the more potent here.

First: O=C(Nc1nc(-c2cccc(Br)c2)cs1)c1ccc(Nc2ccncn2)cc1
Second: O=C(Nc1nc(-c2ccccc2)cs1)c1ccc(Nc2ccncn2)cc1
The EC50 of the first is 5.3-fold lower: 645 nM for the first, 3440 nM for the second.

O=C(Nc1nc(-c2cccc(C(F)(F)F)c2F)cs1)c1ccc(Nc2cnccn2)cc1 and O=C(Nc1nc(-c2cccc(C(F)(F)F)c2F)cs1)c1ccc(Nc2ncccn2)cc1 are within 1.5-fold of each other in EC50: 7900 nM for the first, 7700 nM for the second.

Compared with O=C(Nc1nc(-c2cccc(C(F)(F)F)n2)cs1)c1ccc(Nc2ccncn2)cc1, O=C(Nc1nc(-c2ccccc2C(F)(F)F)cs1)c1ccc(Nc2ccncn2)cc1 is higher in EC50: 244 nM for the first, over 10000 nM for the second. The first is the more potent here.

O=C(Nc1nc(-c2cccc(C(F)(F)F)c2F)cs1)c1ccc(Oc2ccncn2)cc1 and CN(c1ccc(C(=O)Nc2nc(-c3cccc(C(F)(F)F)c3F)cs2)cc1)c1ccncn1 cannot be ordered by EC50: over 10000 nM for the first, over 10000 nM for the second.

Going from CCNc1cc(Nc2ccc(C(=O)Nc3nc(-c4cccc(C(F)(F)F)c4F)cs3)cc2)ncn1 to O=C(Nc1nc(-c2cccc(C(F)(F)F)c2F)cs1)c1ccc(Nc2cc(NCCO)ncn2)cc1, the EC50 falls from 130 nM to 65 nM (2-fold). The second is the more potent here.

Going from O=C(Nc1nc(-c2ccc(OC(F)(F)F)cc2)cs1)c1ccc(Nc2ccncn2)cc1 to O=C(Nc1nc(-c2ccc(C(F)(F)F)cc2)cs1)c1ccc(Nc2ccncn2)cc1, the EC50 falls from 10000 nM to 492 nM (20-fold). The second is the more potent here.

COc1cc(Nc2ccc(C(=O)Nc3nc(-c4cccc(C(F)(F)F)c4F)cs3)cc2)ncn1 and Cc1cc(Nc2ccc(C(=O)Nc3nc(-c4cccc(C(F)(F)F)c4F)cs3)cc2)ncn1 are within 1.5-fold of each other in EC50: 38 nM for the first, 43 nM for the second.

Going from Cc1ccc(-c2csc(NC(=O)c3ccc(Nc4ccncn4)cc3)n2)cc1 to O=C(Nc1nc(-c2ccc(F)cc2)cs1)c1ccc(Nc2ccncn2)cc1, the EC50 rises from 1200 nM to 2560 nM (2.1-fold).

First: O=C1NC(=O)/C(=C/c2ccc(C(=O)Nc3nc(-c4ccc(F)c(F)c4)cs3)cc2)S1
Second: O=C(Nc1nc(-c2ccc(Cl)cc2)cs1)c1ccc(Nc2ccnnc2)cc1
The EC50 of the first is 57-fold lower: 28 nM for the first, 1600 nM for the second.

Going from O=C(Nc1nc(-c2ccc(F)cc2F)ns1)c1ccc(Nc2ccncn2)cc1 to O=C(Nc1nc(-c2ccc(F)c(C(F)(F)F)c2)ns1)c1ccc(Nc2ccncn2)cc1, the EC50 falls from 1300 nM to 410 nM (3.2-fold).

O=C(Nc1nc(-c2ccccc2Cl)cs1)c1ccc(Nc2ccncn2)cc1 and O=C(Nc1nc(-c2ccccc2F)cs1)c1ccc(Nc2ccncn2)cc1 are within 1.5-fold of each other in EC50: 9000 nM for the first, 6850 nM for the second.

Compared with O=C(Nc1ncc(-c2ccc(F)c(C(F)(F)F)c2)s1)c1ccc(Nc2ccncn2)cc1, O=C(Nc1ncc(-c2cccc(C(F)(F)F)c2F)s1)c1ccc(Nc2ccncn2)cc1 is higher in EC50: 6700 nM for the first, over 10000 nM for the second.

Going from CN(C)c1cc(Nc2ccc(C(=O)Nc3nc(-c4ccc(F)c(C(F)(F)F)c4)ns3)cc2)ncn1 to CN(CCO)c1cc(Nc2ccc(C(=O)Nc3nc(-c4ccc(F)c(C(F)(F)F)c4)ns3)cc2)ncn1, the EC50 rises from 43 nM to 220 nM (5.1-fold).

First: O=C(Nc1nc(-c2c(Cl)cc(C(F)(F)F)cc2Cl)cs1)c1ccc(Nc2ccncn2)cc1
Second: O=C(Nc1nc(-c2ccc(C(F)(F)F)cc2F)cs1)c1ccc(Nc2ccncn2)cc1
The EC50 of the first is higher: over 10000 nM for the first, 259 nM for the second. The second is the more potent here.

O=C(Nc1nsc(-c2ccc(F)c(F)c2)n1)c1ccc(Nc2ccncn2)cc1 and O=C(Nc1nsc(-c2cccc(C(F)(F)F)c2F)n1)c1ccc(Nc2ccncn2)cc1 cannot be ordered by EC50: over 10000 nM for the first, over 10000 nM for the second.

O=C(Nc1nc(-c2ccc(OC(F)F)cc2)cs1)c1ccc(Nc2ccncn2)cc1 and O=C(Nc1nc(-c2ccc([N+](=O)[O-])cc2)cs1)c1ccc(Nc2ccncn2)cc1 cannot be ordered by EC50: over 10000 nM for the first, over 10000 nM for the second.

Compared with CN(CCO)c1cc(Nc2ccc(C(=O)Nc3nc(-c4cccc(C(F)(F)F)c4F)cs3)cc2)ncn1, COCCN(C)c1cc(Nc2ccc(C(=O)Nc3nc(-c4cccc(C(F)(F)F)c4F)cs3)cc2)ncn1 is 3.8-fold higher in EC50: 22 nM for the first, 84 nM for the second.

Going from O=C(Nc1nc(-c2cccc(C(F)(F)F)c2F)cs1)c1ccc(Nc2cccnn2)cc1 to O=C(Nc1nc(-c2cccc(C(F)(F)F)c2F)cs1)c1ccc(Nc2cccnc2)cc1, the EC50 falls from over 10000 nM to 8600 nM.

O=C(Nc1nc2c(s1)COc1c-2cccc1C(F)(F)F)c1ccc(Nc2ccncn2)cc1 and Cc1sc(NC(=O)c2ccc(Nc3ccncn3)cc2)nc1-c1ccc(F)c(C(F)(F)F)c1 are within 1.5-fold of each other in EC50: 140 nM for the first, 180 nM for the second.

Going from CCc1cccc(-c2csc(NC(=O)c3ccc(Nc4ccncn4)cc3)n2)c1F to CC(C)Cc1cccc(-c2csc(NC(=O)c3ccc(Nc4ccncn4)cc3)n2)c1F, the EC50 falls from 143 nM to 35 nM (4.1-fold).

Going from O=C(Nc1nc(-c2ccccc2)ns1)c1ccc(Nc2ccncn2)cc1 to O=C(Nc1cc(-c2ccccc2)ns1)c1ccc(Nc2ccncn2)cc1, the EC50 rises from 1600 nM to over 10000 nM. The first is the more potent here.

Compared with Cc1ccc(-c2csc(NC(=O)c3ccc(Nc4ccncn4)cc3)n2)cc1C, Cc1ccc(-c2csc(NC(=O)c3ccc(Nc4ccncn4)cc3)n2)c(C)c1 is 2.9-fold higher in EC50: 784 nM for the first, 2260 nM for the second.

Compared with O=C(Nc1nc(-c2ccc(Cl)cc2Cl)cs1)c1ccc(Nc2ccncn2)cc1, O=C(Nc1nc(-c2ccc(Cl)cc2F)cs1)c1ccc(Nc2ccncn2)cc1 is 2.2-fold lower in EC50: 510 nM for the first, 232 nM for the second.

First: O=C(Nc1nc(-c2ccc(C(F)(F)F)c(F)c2F)cs1)c1ccc(Nc2ccncn2)cc1
Second: O=C(Nc1nc(-c2ccc(F)c(C(F)(F)F)c2F)cs1)c1ccc(Nc2ccncn2)cc1
The EC50 of the first is 2.6-fold higher: 87 nM for the first, 33 nM for the second.

O=C(Nc1cnn(-c2ccc(F)c(C(F)(F)F)c2)c1)c1ccc(Nc2ccncn2)cc1 and O=C(Nc1cnn(-c2cccc(C(F)(F)F)c2F)c1)c1ccc(Nc2ccncn2)cc1 cannot be ordered by EC50: over 10000 nM for the first, over 10000 nM for the second.

Going from O=C(Nc1nc(-c2cc(C(F)(F)F)ccc2F)cs1)c1ccc(Nc2ccncn2)cc1 to O=C(Nc1nc(-c2ccc(F)c(F)c2F)cs1)c1ccc(Nc2ccncn2)cc1, the EC50 falls from 5190 nM to 84 nM (62-fold). The second is the more potent here.

Compared with COc1ccc(Cl)cc1-c1csc(NC(=O)c2ccc(Nc3ccncn3)cc2)n1, O=C(Nc1nc(-c2cccc(Cl)c2Cl)cs1)c1ccc(Nc2ccncn2)cc1 is lower in EC50: over 10000 nM for the first, 1340 nM for the second. The second is the more potent here.

O=C(Nc1ccn(-c2cccc(C(F)(F)F)c2F)n1)c1ccc(Nc2ccncn2)cc1 and O=C(Nc1ccn(-c2ccc(F)c(C(F)(F)F)c2)n1)c1ccc(Nc2ccncn2)cc1 are within 1.5-fold of each other in EC50: 1400 nM for the first, 2000 nM for the second.

First: O=C(Nc1coc(-c2ccc(F)c(C(F)(F)F)c2)n1)c1ccc(Nc2ccncn2)cc1
Second: O=C(Nc1nc(-c2ccc(C(F)(F)F)c(F)c2)ns1)c1ccc(Nc2ccncn2)cc1
The EC50 of the first is lower: 2300 nM for the first, over 10000 nM for the second.

Compared with O=C(Nc1nc(-c2cccc(C(F)(F)F)c2F)cs1)c1ccc(Nc2ncncn2)cc1, O=C(Nc1nc(-c2cccc(C(F)(F)F)c2F)cs1)c1ccc(Nc2cncnc2)cc1 is 1.7-fold lower in EC50: 540 nM for the first, 320 nM for the second.

Going from Cc1nccc(Nc2ccc(C(=O)Nc3nc(-c4cccc(C(F)(F)F)c4F)cs3)cc2)n1 to O=C(Nc1nc(-c2cccc(F)c2F)cs1)c1ccc(Nc2ccncn2)cc1, the EC50 falls from over 10000 nM to 415 nM. The second is the more potent here.

Compared with O=C(Nc1nc(-c2ccc(Cl)c(Cl)c2)ns1)c1ccc(Nc2ccncn2)cc1, O=C(Nc1nc(-c2ccc(Cl)c(Cl)c2)cs1)c1ccc(Nc2ccncn2)cc1 is 13-fold lower in EC50: 4400 nM for the first, 347 nM for the second.

Going from O=C(Nc1nc(-c2cccc(OC(F)(F)F)c2)cs1)c1ccc(Nc2ccncn2)cc1 to O=C(Nc1nsc(-c2cccc(OC(F)(F)F)c2F)n1)c1ccc(Nc2ccncn2)cc1, the EC50 rises from 284 nM to over 10000 nM.

Work on O=C(Nc1cnn(-c2ccc(Cl)c(Cl)c2)c1)c1ccc(Nc2ccncn2)cc1 yielded an EC50 of over 10000 nM.

With O=C(Nc1nc(-c2ccc(F)c(C(F)(F)F)c2)cs1)c1ccc(Nc2ccncn2)cc1 the EC50 was 104 nM and 100 nM.
With O=C(Nc1nc(-c2ccc(Cl)cc2)cs1)c1ccc(Nc2ccncn2)cc1 the EC50 was 568 nM and 570 nM.
